# Data reported in patent US11634447B2 (priority 2012, dated 2023).
# Several values for one entry are separate records, joined by “and”; a condition that tells them apart may be missing. Equal values may be shown once.
# Columns and labels:
# [1] = molecular target: T1, FimH-CRD (Escherichia coli, UniProt P08191); assay: Competitive binding assay by fluorescence polarization, assay 2 (compounds prepared by a robotics system, plates frozen and thawed); design: species or system E. coli
# T1 construct: The first 177 amino acids of the FimH protein are expressed as a fusion protein; thrombin tag (printed as 'fusion protein with thrombin') (cleaved yes); made in house; host or cells: bacteria (pET21b plasmid)
# Description: (§1) The first 177 amino acids of the FimH protein are expressed as a fusion protein with thrombin in a pET21b plasmid in bacteria. This FimH protein sequence contains the carbohydrate recognition domain (CRD) and shall be termed FimH-CRD. Following bacterial expression of the protein, the FimH-CRD protein is purified to homogeneity and the thrombin tag removed by protease cleavage. A competitive binding assay by fluorescence polarization is performed using 5 nM of the Alexa 647 mannoside probe and 60 nM of the FimH-CRD. The samples are assayed in a low volume 384 well microtiter plate in a final volume of 20 μl. The final assay buffer conditions are the following, 50 mM Tris-Cl, ph 7.0, 100 mM NaCl, 1 mM EDTA, 5 mM β-mercaptoethanol, 0.05% BSA and 2.5% DMSO. Two assays are performed for FimH, termed assay 1 or assay 2. The assay conditions are the same for both assays except the following: assay 1 has compounds prepared by manual dilution in a serial dilution factor with 12-point dose response while assay 2 has compounds prepared by a robotics system also through a serial dilution factor (12 point dose response) and initially prepared in duplicate in 384 well-Corning polypropylene round bottom plates. The assay 2 plates have compound which is then frozen and must be thawed prior to use. Initially the Alexa 647 probe and the FimH-CRD are added to the assay buffer and then 0.5 μl of test compound (assay 1 or 2) between 0.4 nM to 75 μM final concentration are added (12 point titration with 3-fold serial dilution). Control wells for the Alexa 647 probe are prepared with the same conditions except for the addition of the FimH-CRD protein. Plates are then incubated for 5 hrs at room temperature in the dark and under humid conditions to prevent drying. Plates are read using the SpectraMax Paradigm multi-mode plate reader and the appropriate fluorescent polarization detection cartridge (Alexa-647).
# (§2) Alexa 647 mannoside probe is prepared using the similar procedure reported for FAM mannoside (Han, Z. et. al., 2010, J. Med. Chem., 53, 4779) and is described in the scheme below.
# (§3) To a blue colored stirred solution of (2S,3S,4S,5S,6R)-2-(4-aminobutoxy)-6-(hydroxymethyl)tetrahydropyran-3,4,5-triol (2.21 mg, 0.009 mmol) and the (2E)-2-[(2E,4E)-5-[3,3-dimethyl-5-sulfonato-1-(3-sulfonatopropyl)indol-1-ium-2-yl]penta-2,4-dienylidene]-3-[6-(2,5-dioxopyrrolidin-1-yl)oxy-6-oxo-hexyl]-3-methyl-1-(3-sulfonatopropyl)indoline-5-sulfonate (Potassium Ion (3)) (4.9 mg, 0.0044 mmol) in DMF (44 μL) is added Et3N (5.4 mg, 7.0 μL, 0.053 mmol) at RT. The solution is stirred at room temperature over night, concentrated, dissolved in water and purified on 12 g C-18 silica gel cartridge on Isolera system using acetonitrile in water (0 to 40%, 10 CV) and followed by lyophilization to afford Alexa 647 mannoside probe (3.3 mg, 34%) as deep blue solid.
# (§4) The Kd values of the compounds are determined from dose response curves using twelve concentrations per compound in duplicate. Curves are fitted to data points using Fluorescence Polarization competitive displacement analysis, and Kds are interpolated from the resulting curves using GraphPad Prism software, version […] (GraphPad software Inc., San Diego, Calif., USA).
# [2] = system: bacterial strain LF82 binding to the glycoprotein BSA-(Mannose)3; assay: Bacterial Binding Assay (BBA); assay type: cell-based, Escherichia coli; conditions: read-out: Bacterial Binding Assay IC50, LF82/Luciferase strain binding to BSA-(Man)3 coated plates, luminescence
# Method in brief: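 Inhibition of LF82/luciferase E. coli adhesion is read as luminescence after washing off unbound cells. Compound and bacteria (10^7 per well) are co-incubated 40-75 min at room temperature on wells coated with 0.5-2 μg/mL BSA-(Man)3, with BSA-only wells as background; IC50 values derived.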
# [3] = molecular target: T1, FimH-CRD; assay: Competitive binding assay by fluorescence polarization, assay 1 (compounds prepared by manual dilution); design: species or system E. coli; conditions: Assay 1 Kd, 5 nM Alexa 647 mannoside probe, 60 nM FimH-CRD, replicate values in one cell
# Description: as §1, §2, §3, §4
# [4] = Assay 2 Kd, 5 nM Alexa 647 mannoside probe, 60 nM FimH-CRD, replicate values in one cell
# [5] = read-out: Assay 2 Kd, 5 nM Alexa 647 mannoside probe, 60 nM FimH-CRD, replicate values in one cell
# T1 sequence (P08191 22-177): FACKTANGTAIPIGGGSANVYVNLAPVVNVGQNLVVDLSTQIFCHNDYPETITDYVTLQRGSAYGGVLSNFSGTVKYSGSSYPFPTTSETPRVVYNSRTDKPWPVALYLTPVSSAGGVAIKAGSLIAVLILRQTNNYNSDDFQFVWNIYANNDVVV
smiles,measurement,setting,value
"OC[C@H]1O[C@H](c2ccc3cc(C#C[C@H]4O[C@H](CO)[C@@H](O)[C@H](O)[C@@H]4O)ccc3c2)[C@@H](O)[C@@H](O)[C@@H]1O [Compound 56, (2R,3S,4R,5S,6R)-2-(Hydroxymethyl)-6-[2-[6-[(2R,3S,4R,5S,6R)-3,4,5-trihydroxy-6-(hydroxymethyl)tetrahydropyran-2-yl]-2-naphthyl]ethynyl]tetrahydropyran-3,4,5-triol]",Kd,[1]; [4],< 5 nM
same,Kd,[1]; [5],< 5 nM
same,IC50,[2],20 nM
"OC[C@H]1O[C@H](c2cn([C@H]3O[C@H](CO)[C@@H](O)[C@H](O)[C@@H]3O)nn2)[C@@H](O)[C@@H](O)[C@@H]1O [Compound 42, ((2R,3S,4R,5S,6R)-2-(Hydroxymethyl)-6-[1-[(2S,3S,4S,5S,6R)-3,4,5-trihydroxy-6-(hydroxymethyl)tetrahydropyran-2-yl]triazol-4-yl]tetrahydropyran-3,4,5-triol)]",Kd,[1]; [4],140 nM and 145 nM
same,Kd,[3],114 nM and 377 nM
"OC[C@H]1O[C@H](C/C=C/c2ccc(C#C[C@H]3O[C@H](CO)[C@@H](O)[C@H](O)[C@@H]3O)cc2)[C@@H](O)[C@@H](O)[C@@H]1O [Compound 55, (2R,3S,4R,5S,6R)-2-(Hydroxymethyl)-6-[(E)-3-[4-[2-[(2R,3S,4R,5S,6R)-3,4,5-trihydroxy-6-(hydroxymethyl)tetrahydropyran-2-yl]ethynyl]phenyl]allyl]tetrahydropyran-3,4,5-triol]",Kd,[1]; [4],< 5 nM and 5 nM
same,IC50,[2],210 nM
"OC[C@H]1O[C@H](C#Cc2ccc3cc(C#C[C@H]4O[C@H](CO)[C@@H](O)[C@H](O)[C@@H]4O)ccc3c2)[C@@H](O)[C@@H](O)[C@@H]1O [Compound 59, (2R,3S,4R,5S,6R)-2-(Hydroxymethyl)-6-[2-[6-[2-[(2R,3S,4R,5S,6R)-3,4,5-trihydroxy-6-(hydroxymethyl)tetrahydropyran-2-yl]ethynyl]-2-naphthyl]ethynyl]tetrahydropyran-3,4,5-triol]",Kd,[1]; [4],< 5 nM
same,Kd,[1]; [5],< 5 nM
same,IC50,[2],8.2 nM
"OC[C@H]1O[C@H](c2csc([C@H]3O[C@H](CO)[C@@H](O)[C@H](O)[C@@H]3O)c2)[C@@H](O)[C@@H](O)[C@@H]1O [Compound 47, ((2R,3S,4R,5S,6R)-2-(Hydroxymethyl)-6-[5-[(2S,3S,4S,5S,6R)-3,4,5-trihydroxy-6-(hydroxymethyl)tetrahydropyran-2-yl]-3-thienyl]tetrahydropyran-3,4,5-triol)]",Kd,[1]; [4],44 nM and 37 nM and 51 nM and 36 nM
"OC[C@H]1O[C@H](C#Cc2cccc(C#C[C@H]3O[C@H](CO)[C@@H](O)[C@H](O)[C@@H]3O)c2)[C@@H](O)[C@@H](O)[C@@H]1O [Compound 57, (2R,3S,4R,5S,6R)-2-(Hydroxymethyl)-6-[2-[3-[2-[(2R,3S,4R,5S,6R)-3,4,5-trihydroxy-6-(hydroxymethyl)tetrahydropyran-2-yl]ethynyl]phenyl]ethynyl]tetrahydropyran-3,4,5-triol]",Kd,[1]; [4],< 5 nM
same,Kd,[1]; [5],< 5 nM
same,IC50,[2],27 nM
"OC[C@H]1O[C@H](c2ccc([C@H]3O[C@H](CO)[C@@H](O)[C@H](O)[C@@H]3O)s2)[C@@H](O)[C@@H](O)[C@@H]1O [Compound 46, ((2R,3S,4S,5S,6S)-2-(Hydroxymethyl)-6-[5-[(2S,3S,4S,5S,6R)-3,4,5-trihydroxy-6-(hydroxymethyl)tetrahydropyran-2-yl]-2-thienyl]tetrahydropyran-3,4,5-triol)]",Kd,[1]; [4],11 nM and 9 nM and 16 nM and 14 nM
"O=C(Nc1cccc([C@H]2O[C@H](CO)[C@@H](O)[C@H](O)[C@@H]2O)c1)Nc1cccc([C@H]2O[C@H](CO)[C@@H](O)[C@H](O)[C@@H]2O)c1 [Compound 51, (1,3-Bis(3-((2R,3S,4R,5S,6R)-3,4,5-trihydroxy-6-(hydroxymethyl)tetrahydro-2H-pyran-2-yl)phenyl)urea)]",Kd,[1]; [4],15 nM and < 5 nM
same,IC50,[2],830 nM
"OC[C@H]1O[C@H](C#Cc2cccc3c(C#C[C@H]4O[C@H](CO)[C@@H](O)[C@H](O)[C@@H]4O)cccc23)[C@@H](O)[C@@H](O)[C@@H]1O [Compound 60, (2R,3S,4R,5S,6R)-2-(Hydroxymethyl)-6-[2-[5-[2-[(2R,3S,4R,5S,6R)-3,4,5-trihydroxy-6-(hydroxymethyl)tetrahydropyran-2-yl]ethynyl]-1-naphthyl]ethynyl]tetrahydropyran-3,4,5-triol]",Kd,[1]; [4],< 5 nM
same,Kd,[1]; [5],< 5 nM
same,IC50,[2],13 nM
"OC[C@H]1O[C@H](C#CC#C[C@H]2O[C@H](CO)[C@@H](O)[C@H](O)[C@@H]2O)[C@@H](O)[C@@H](O)[C@@H]1O [Compound 54, (2R,3S,4R,5S,6R)-2-(hydroxymethyl)-6-[4-[(2R,3S,4R,5S,6R)-3,4,5-trihydroxy-6-(hydroxymethyl)tetrahydropyran-2-yl]buta-1,3-diynyl]tetrahydropyran-3,4,5-triol]",Kd,[1]; [4],16 nM and 30 nM
same,IC50,[2],1150 nM
"OC[C@H]1O[C@H](c2cccc(C#CC#Cc3cccc([C@H]4O[C@H](CO)[C@@H](O)[C@H](O)[C@@H]4O)c3)c2)[C@@H](O)[C@@H](O)[C@@H]1O [Compound 50, ((2R,3S,4R,5S,6R)-2-(Hydroxymethyl)-6-[3-[4-[3-[(2R,3S,4R,5S,6R)-3,4,5-trihydroxy-6-(hydroxymethyl)tetrahydropyran-2-yl]phenyl]buta-1,3-diynyl]phenyl]tetrahydropyran-3,4,5-triol)]",Kd,[1]; [4],9 nM and < 5 nM (2×)
same,IC50,[2],950 nM
"OC[C@H]1O[C@H](C#Cc2ccc(C#C[C@H]3O[C@H](CO)[C@@H](O)[C@H](O)[C@@H]3O)cc2)[C@@H](O)[C@@H](O)[C@@H]1O [Compound 53, (2R,3S,4R,5S,6R)-2-(Hydroxymethyl)-6-[2-[4-[2-[(2R,3S,4R,5S,6R)-3,4,5-trihydroxy-6-(hydroxymethyl)tetrahydropyran-2-yl]ethynyl]phenyl]ethynyl]tetrahydropyran-3,4,5-triol]",Kd,[1]; [4],< 5 nM
same,Kd,[1]; [5],< 5 nM
same,IC50,[2],55 nM
"OC[C@H]1O[C@H](c2cccc(CCCCc3cccc([C@H]4O[C@H](CO)[C@@H](O)[C@H](O)[C@@H]4O)c3)c2)[C@@H](O)[C@@H](O)[C@@H]1O [Compound 52, ((2R,3S,4R,5S,6R)-2-(Hydroxymethyl)-6-[3-[4-[3-[(2R,3S,4R,5S,6R)-3,4,5-trihydroxy-6-(hydroxymethyl)tetrahydropyran-2-yl]phenyl]butyl]phenyl]tetrahydropyran-3,4,5-triol)]",Kd,[1]; [4],< 5 nM
same,Kd,[1]; [5],< 5 nM
same,IC50,[2],660 nM
"O=C(C[C@H]1O[C@H](CO)[C@@H](O)[C@H](O)[C@@H]1O)NCc1ccc(CNC(=O)C[C@H]2O[C@H](CO)[C@@H](O)[C@H](O)[C@@H]2O)cc1 [Compound 49, (2-[(2R,3S,4R,5S,6R)-3,4,5-Trihydroxy-6-(hydroxymethyl)tetrahydropyran-2-yl]-N-[[4-[[[2-[(2R,3S,4R,5S,6R)-3,4,5-trihydroxy-6-(hydroxymethyl)tetrahydropyran-2-yl]acetyl]amino]methyl]phenyl]methyl]acetamide)]",Kd,[1]; [4],149 nM and 87 nM
"OC[C@H]1O[C@H](C#Cc2ccc3ccc(C#C[C@H]4O[C@H](CO)[C@@H](O)[C@H](O)[C@@H]4O)cc3c2)[C@@H](O)[C@@H](O)[C@@H]1O [Compound 58, (2R,3S,4R,5S,6R)-2-(Hydroxymethyl)-6-[2-[7-[2-[(2R,3S,4R,5S,6R)-3,4,5-trihydroxy-6-(hydroxymethyl)tetrahydropyran-2-yl]ethynyl]-2-naphthyl]ethynyl]tetrahydropyran-3,4,5-triol]",Kd,[1]; [4],< 5 nM
same,Kd,[1]; [5],< 5 nM
same,IC50,[2],17 nM
